Test results as given in PMC10287555, “Camonsertib in DNA damage response-deficient advanced solid tumors: phase 1 trial results” (Nature Medicine, 2023).

Legend:
[1] = Dose-limiting toxicities (DLTs), TRESR phase 1 module 1; format: in vivo
Protocol: The starting dose of camonsertib was 5 mg administered on a 5-d-on, 2-d-off (5/2) schedule given once daily (QD) in 21-d cycles. Dose escalation proceeded until a total daily dose of 160 mg was achieved. Per protocol, based on emerging safety, PK and PD data, an alternative schedule of 3 d on, 4 d off (3/4) was then started at a daily dose of 120 mg and escalated to 200 mg, and 160 mg QD (3/4) of camonsertib was proposed as the preliminary RP2D based on long-term (>6 weeks) safety, tolerability, PK and PD data. The dose-limiting toxicity (DLT) rate at the proposed preliminary RP2D was 8% (2/25). All DLTs comprised hematologic toxicities (Table 2).
Patients were treated with single-agent camonsertib at doses ranging from 5–160 mg QD to 40–80 mg twice daily, administered orally on a 5/2 or 3/4 weekly schedule. An intermittent schedule of 2 weeks on/1 week off was also evaluated at dose levels of 160 mg and 200 mg QD (3/4). Each cycle comprised 21 d of treatment. Module 1 dose-escalation decisions based on patients in M1a and M1b cohorts were governed by the Bayesian optimal interval (BOIN) design starting with single-patient cohorts in M1a. […] Escalation of M1a and M1b occurred in parallel until the maximum tolerated dose (MTD) […] RP2D was determined for each schedule. Backfill cohorts were employed to (1) aid in the assessment of possible anti-tumor activity in a subset of patients with a specific gene abnormality or tumor type; (2) allow additional PK/PD evaluation; and (3) further assess drug-related toxicities. Patient safety review and dose decisions were carried out by a Safety Review Committee, comprised of the study investigators and sponsor representatives.
All safety and efficacy endpoints were summarized with descriptive statistics. Safety data were summarized using the safety population, which consisted of all patients who received at least one dose of RP-3500. The DLT rate was based on the DLT-evaluable population, which included those patients in dose-escalation cohorts (M1a and M1b only) receiving ≥80% of planned doses of camonsertib, who completed all required safety evaluations and were observed through the end of cycle 1 or patients who experienced a DLT. Due to the different number of dose levels expected and the exploratory nature of the phase 1 study, anti-tumor activity parameters were primarily based on patients who received ≥1 dose of RP-3500 and had ≥1 post-baseline tumor assessment by RECIST 1.1 and/or GCIG CA-125 or PCWG3 PSA criteria, with an initial dose level of >100 mg d^−1 (dose level predicted to achieve efficacious exposure), as defined in the statistical analysis plan. Additional subgroups based on tumor types or genotypes of interest were based on this efficacy analysis set. […] Patients were, therefore, enrolled in the study and endpoints assessed regardless of sex, gender and race. No formal statistical tests were performed in this study. However, nominal P values (two-sided) were provided for the hypothesis-generating purpose of selected exploratory endpoints, without adjusting for multiplicity. A log-rank test was used in between-group comparisons for the time-to-event endpoints (PFS and DOT), and Fisher’s exact test was used in between-group comparisons for the binary endpoints (CBR, MR, etc.).

[2] = Food effect on PK (module 1c); format: in vivo, human
Source text: TRESR (NCT04497116) is a modular, phase 1/2a, first-in-human, multicenter, open-label, non-randomized, dose-escalation, dose-expansion study of camonsertib, administered orally as a single agent or in combination with talazoparib or gemcitabine in patients with advanced solid tumors. The results reported here focus on module 1, which includes the dose escalation of camonsertib monotherapy, and is further divided into three submodules: module 1a (M1a), 5/2 dosing schedule; module 1b (M1b), 3/4 dosing schedule; and module 1c (M1c), food effect evaluation. For the 12 patients enrolled in M1c, camonsertib was administered with a high-fat, high-calorie meal on day −3 and in the fasted state on day 1, to evaluate the effect of food on the PK of camonsertib. After the food effect portion of the study, patients continued camonsertib monotherapy on either the 5/2 or 3/4 schedule and were analyzed for safety and efficacy along with the patients in M1a and M1b. The study was conducted in accordance with the Declaration of Helsinki and Council for International Organizations of Medical Sciences International Ethical Guidelines, applicable International Conference on Harmonization Good Clinical Practice Guidelines and applicable laws and regulations. All patients provided written informed consent to adhere to the clinical protocol and provide serial blood samples and tumor tissue. The protocol was approved by the institutional review board or ethics committee at each participating institution.
The plasma levels from cycle 1, day 1 of camonsertib were quantified using a validated liquid chromatography tandem–mass spectrometry (LC–MS/MS) method. […] All PK parameters were calculated using actual sampling times. Mean plasma concentration time profiles at given dose levels and regimens were plotted on semi-logarithmic plots using nominal times.

[3] = 3/4 schedule, 60 mg BID (n = 3)
[4] = 3/4 schedule, 120 mg QD (n = 17)
[5] = 3/4 schedule, 160 mg QD (n = 25)
[6] = 3/4 schedule, 2/1w, 160 mg QD (n = 25)
[7] = 3/4 schedule, 2/1w, 200 mg QD (n = 5)
[8] = 5/2 schedule, 40 mg BID (n = 1)
[9] = 5/2 schedule, 100 mg QD (n = 4)
[10] = 5/2 schedule, 120 mg QD (n = 4)
[11] = 5/2 schedule, 160 mg QD (n = 3)
[12] = 5/2 schedule, 5–80 mg QD (n = 5)
[13] = high fat/high calorie meal vs fasted, 100–160 mg QD

C[C@@H]1COCCN1c1cc([C@]2(O)C[C@H]3CC[C@@H](C2)O3)c2cnn(-c3cc[nH]n3)c2n1 [camonsertib]
DLT rate at the proposed preliminary RP2D ([1]; 160 mg QD (3/4), 2/25): 8% | Any DLT event [1, 3]: 1 (33.3) n (%) | DLT: Anemia [1, 3]: 1 (33.3) n (%) | DLT: Febrile neutropenia [1, 3]: 0 n (%) | DLT: Neutrophil count decreased [1, 3]: 0 n (%) | DLT: Platelet count decreased [1, 3]: 0 n (%) | Any DLT event [1, 4]: 1 (5.9) n (%) | DLT: Anemia [1, 4]: 1 (5.9) n (%) | DLT: Febrile neutropenia [1, 4]: 0 n (%) | DLT: Neutrophil count decreased [1, 4]: 0 n (%) | DLT: Platelet count decreased [1, 4]: 0 n (%) | Any DLT event [1, 5]: 2 (8.0) n (%) | DLT: Anemia [1, 5]: 2 (8.0) n (%) | DLT: Febrile neutropenia [1, 5]: 0 n (%) | DLT: Neutrophil count decreased [1, 5]: 0 n (%) | DLT: Platelet count decreased [1, 5]: 0 n (%) | Any DLT event [1, 6]: 2 (8.0) n (%) | DLT: Anemia [1, 6]: 1 (4.0) n (%) | DLT: Febrile neutropenia [1, 6]: 0 n (%) | DLT: Neutrophil count decreased [1, 6]: 1 (4.0) n (%) | DLT: Platelet count decreased [1, 6]: 0 n (%) | Any DLT event [1, 7]: 1 (20.0) n (%) | DLT: Anemia [1, 7]: 1 (20.0) n (%) | DLT: Febrile neutropenia [1, 7]: 1 (20.0) n (%) | DLT: Neutrophil count decreased [1, 7]: 0 n (%) | DLT: Platelet count decreased [1, 7]: 1 (20.0) n (%) | Any DLT event [1, 8]: 0 n (%) | DLT: Anemia [1, 8]: 0 n (%) | DLT: Febrile neutropenia [1, 8]: 0 n (%) | DLT: Neutrophil count decreased [1, 8]: 0 n (%) | DLT: Platelet count decreased [1, 8]: 0 n (%) | Any DLT event [1, 9]: 2 (50.0) n (%) | DLT: Anemia [1, 9]: 1 (25.0) n (%) | DLT: Febrile neutropenia [1, 9]: 0 n (%) | DLT: Neutrophil count decreased [1, 9]: 0 n (%) | DLT: Platelet count decreased [1, 9]: 1 (25.0) n (%) | Any DLT event [1, 10]: 0 n (%) | DLT: Anemia [1, 10]: 0 n (%) | DLT: Febrile neutropenia [1, 10]: 0 n (%) | DLT: Neutrophil count decreased [1, 10]: 0 n (%) | DLT: Platelet count decreased [1, 10]: 0 n (%) | Any DLT event [1, 11]: 0 n (%) | DLT: Anemia [1, 11]: 0 n (%) | DLT: Febrile neutropenia [1, 11]: 0 n (%) | DLT: Neutrophil count decreased [1, 11]: 0 n (%) | DLT: Platelet count decreased [1, 11]: 0 n (%) | Any DLT event [1, 12]: 0 n (%) | DLT: Anemia [1, 12]: 0 n (%) | DLT: Febrile neutropenia [1, 12]: 0 n (%) | DLT: Neutrophil count decreased [1, 12]: 0 n (%) | DLT: Platelet count decreased [1, 12]: 0 n (%) | Preliminary recommended phase 2 dose (RP2D) ([1]; QD, 3 d on/4 d off (weekly on days 1–3)): 160 mg | Any DLT event ([1]; Total DLT evaluable (n = 92)): 9 (9.8) n (%) | DLT: Anemia ([1]; Total DLT evaluable (n = 92)): 7 (7.6) n (%) | DLT: Febrile neutropenia ([1]; Total DLT evaluable (n = 92)): 1 (1.1) n (%) | DLT: Neutrophil count decreased ([1]; Total DLT evaluable (n = 92)): 1 (1.1) n (%) | DLT: Platelet count decreased ([1]; Total DLT evaluable (n = 92)): 2 (2.2) n (%) | Food effect on AUC [2, 13]: no change in AUC | Food effect on Cmax [2, 13]: reduction | Food effect on Tmax [2, 13]: delay in Tmax | Effect of a high-fat, high-calorie meal on PK ([2]; twelve patients, module 1c): modest PK changes
